Test results taken from ChEMBL document CHEMBL1145121, “Docking studies on alphavbeta3 integrin ligands: pharmacophore refinement and implications for drug design” (J Med Chem, 2003).

What follows are compounds tested against Integrin alpha-V/beta-3 (Homo sapiens, UniProt P05106+P06756) (assay: Inhibition of binding to alphaV-beta3 integrin).
Chain of Integrin alpha-V/beta-3 (P05106 27-788 limits assumed): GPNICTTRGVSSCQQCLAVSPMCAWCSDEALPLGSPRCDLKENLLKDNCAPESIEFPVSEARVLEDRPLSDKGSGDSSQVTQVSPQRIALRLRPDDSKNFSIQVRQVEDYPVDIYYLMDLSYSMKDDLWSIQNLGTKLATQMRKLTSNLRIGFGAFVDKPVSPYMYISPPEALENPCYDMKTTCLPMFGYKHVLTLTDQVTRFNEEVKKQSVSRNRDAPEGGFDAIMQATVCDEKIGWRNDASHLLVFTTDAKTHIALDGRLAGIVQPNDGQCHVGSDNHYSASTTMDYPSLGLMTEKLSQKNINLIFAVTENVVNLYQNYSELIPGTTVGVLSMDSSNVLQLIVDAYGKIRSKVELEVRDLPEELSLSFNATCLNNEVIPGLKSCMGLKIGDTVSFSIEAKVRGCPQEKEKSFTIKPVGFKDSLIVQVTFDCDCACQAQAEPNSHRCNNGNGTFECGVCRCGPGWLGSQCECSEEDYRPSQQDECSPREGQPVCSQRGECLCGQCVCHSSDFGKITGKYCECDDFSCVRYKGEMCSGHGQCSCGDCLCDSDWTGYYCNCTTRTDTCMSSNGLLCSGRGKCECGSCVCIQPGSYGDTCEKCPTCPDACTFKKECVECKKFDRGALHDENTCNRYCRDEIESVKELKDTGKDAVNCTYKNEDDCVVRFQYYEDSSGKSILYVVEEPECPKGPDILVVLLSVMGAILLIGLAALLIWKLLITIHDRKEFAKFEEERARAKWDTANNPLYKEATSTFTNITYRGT
Chain of Integrin alpha-V/beta-3 (P06756 31-889 limits assumed): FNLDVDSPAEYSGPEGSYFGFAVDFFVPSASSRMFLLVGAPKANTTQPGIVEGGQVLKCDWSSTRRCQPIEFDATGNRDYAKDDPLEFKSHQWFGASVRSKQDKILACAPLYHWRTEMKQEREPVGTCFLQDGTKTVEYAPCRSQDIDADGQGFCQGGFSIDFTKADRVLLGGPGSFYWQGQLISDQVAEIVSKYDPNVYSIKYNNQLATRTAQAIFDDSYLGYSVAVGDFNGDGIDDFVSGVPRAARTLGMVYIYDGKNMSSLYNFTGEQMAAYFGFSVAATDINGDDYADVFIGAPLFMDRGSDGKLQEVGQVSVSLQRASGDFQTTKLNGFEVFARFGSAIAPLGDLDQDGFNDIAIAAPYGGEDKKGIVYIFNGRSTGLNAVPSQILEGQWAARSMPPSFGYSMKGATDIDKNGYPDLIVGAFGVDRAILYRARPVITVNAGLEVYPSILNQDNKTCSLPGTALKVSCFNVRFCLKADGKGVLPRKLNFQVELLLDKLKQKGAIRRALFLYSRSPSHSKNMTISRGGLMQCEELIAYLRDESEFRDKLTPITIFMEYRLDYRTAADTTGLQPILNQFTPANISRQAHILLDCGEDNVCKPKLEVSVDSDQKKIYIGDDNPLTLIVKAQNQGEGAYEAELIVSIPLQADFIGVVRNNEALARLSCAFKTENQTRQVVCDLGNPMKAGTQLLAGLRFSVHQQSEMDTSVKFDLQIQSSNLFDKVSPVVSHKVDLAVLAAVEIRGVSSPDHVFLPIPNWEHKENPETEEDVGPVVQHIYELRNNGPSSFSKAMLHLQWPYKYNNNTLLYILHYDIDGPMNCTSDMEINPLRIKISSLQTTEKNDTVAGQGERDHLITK
Chain of Integrin alpha-V/beta-3 (P06756 891-1048 limits assumed): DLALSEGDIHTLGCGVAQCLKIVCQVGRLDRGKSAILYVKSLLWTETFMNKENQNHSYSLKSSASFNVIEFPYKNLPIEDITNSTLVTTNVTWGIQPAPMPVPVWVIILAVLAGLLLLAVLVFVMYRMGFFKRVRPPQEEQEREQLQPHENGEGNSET
Type: protein-complex assay
With `CC(C)C[C@H]1C(=O)N[C@@H](CCCNC(=N)N)C(=O)NCC(=O)N[C@@H](CC(=O)O)C(=O)N[C@@H]2CCN1C2=O` the IC50 was 0.8 nM.
`CC(C)C[C@H]1NC(=O)[C@H](CCCN=C(N)N)NC(=O)CNC(=O)[C@@H](CC(=O)O)NC(=O)[C@@H](Cc2ccccc2)NC1=O` showed an IC50 of 40 nM.
`CC(C)C[C@H]1C(=O)N[C@@H](CCCN=C(N)N)C(=O)NCC(=O)N[C@@H](CC(=O)O)C(=O)N[C@H](Cc2ccccc2)C(=O)N1C` gave an IC50 of 0.6 nM.
`NC(=O)[C@@H](CC(=O)O)NC(=O)NNC(=O)c1cccc(N=C(N)N)c1` gave an IC50 of 7200 nM.
`N=C(N)Nc1cccc(C(=O)NNC(=O)N[C@@H](CC(=O)O)C(N)=O)c1` showed an IC50 of 150 nM.
Work on `N=C(N)Nc1cccc(C(=O)NNC(=O)NC(CC(=O)O)c2ccccc2)c1` (stereo unspecified) yielded an IC50 of 2.6 nM.
